From article PMC12785453, “Oral Fluid Concentrations and Pharmacological Effects of Clephedrone and Methylone in Humans” (International Journal of Molecular Sciences, 2025)
Like-named read-outs stand apart in the source and are kept apart here.

Assays:
[1] = test system: MDMA-like discriminative stimulus effects; design: method as in PMID 30986635; settings: cited from earlier work
[2] = cited from earlier work
[3] = test system: healthy male participants; assay: Physiological effects (SBP, DBP, HR, T), controlled methylone pilot clinical trial; assay type: in vivo, humans
Protocol: Methylone pharmacology was evaluated in a study designed as a randomized, double-blind, placebo-controlled, crossover clinical trial. Four pilot studies were conducted administering methylone at oral doses of 50 (n = 3), 100 (n = 6), 150 (n = 5), and 200 mg (n = 7). Participants attended 3 experimental sessions separated by a one-week wash-out period and received two doses of methylone (one dose per experimental session) compared to placebo, except in the last pilot study in which participants received one dose of methylone, compared to MDMA and placebo. However, in this manuscript, only the results corresponding to the highest methylone doses (n = 12; 150 and 200 mg; mean dose = 179.2 mg) are presented, to enable comparison with clephedrone self-administration. Participants were recruited by word of mouth in the volunteer database of the clinical pharmacology unit.
Participants of the naturalistic clephedrone study were summoned at 15:00 h at the private club where sessions were carried out. The club remained closed to the public until the end of the session, approximately at 21:00 h. As a naturalistic study, participants were left free to talk, read, play games, or listen to music in the time between study evaluations. To avoid possible influences between participants, they were asked to refrain from talking about the effects of the self-administered substance. The experimental sessions of the controlled pilot trial were carried out at the Clinical Research Unit (UPIC) of the Germans Trias i Pujol hospital, where participants were summoned at 7:45 a.m. after fasting overnight and remained there for approximately 11 h.
Methylone hydrochloride of high purity in powder form was acquired from LGC Standards (Teddington, UK) for the controlled study. The Pharmacy Department of the Hospital Universitari Germans Trias i Pujol was responsible for manufacturing, storing, and dispensing identical and opaque soft gelatin capsules containing 50 mg of methylone or a placebo (maltodextrin). Treatment consisted of 5 capsules that combined methylone and/or a placebo to reach the target dose. Details can be found in the previous article.
In the controlled methylone study, vital signs monitors (Philips Sure Signs VM4 monitors, Philips, Amsterdam, The Netherlands) were used to measure SBP, DBP, HR, and oral temperature at baseline (−30 and −15 min) and 0.25, 0.50, 0.75, 1.5, 2, 3, 4, 6, 8, 10, and 24 h after administration. For these evaluations, participants rested in hospital beds in a position of back elevation. Furthermore, electrocardiograms were constantly monitored throughout the sessions for safety reasons.
For statistical analysis, values of physiological (SBP, DBP, HR, and T) and subjective effects (VAS, ARCI, and VESSPA-SSE) were baseline–adjusted. Maximum effects (Emax) and the time needed to reach maximum effects (Tmax) were determined, and the area under the curve up to 5 h (AUC0–5h) for clephedrone and up to 6 h (AUC0–6h) for methylone was calculated using the trapezoidal rule. Emax and AUC values are presented as mean ± standard deviation, whereas Tmax is presented in median (range).
To find possible significant changes through the time course compared to baseline, a Dunnett multiple comparison test was carried out to compare each time point with baseline in both drug conditions. For clephedrone the comparisons were 0–0.5 h, 0–1 h, 0–1.5 h, 0–2 h, 0–3 h, 0–4 h and 0–5 h, and for methylone this analysis included 0–0.25 h, 0–0.5 h, 0–0.75 h, 0–1 h, 0–1.5 h, 0–2 h, 0–3 h, 0–4 h and 0–6 h. Given their different study designs, no comparative analysis between the time courses of both synthetic cathinones was conducted.

[4] = 150 or 200 mg oral, n=12, listed as methylone
[5] = AUC0–6h, 150 or 200 mg oral, n=12

| Structure (SMILES) | Substitution for MDMA in drug discrimination ([1]; rodents) | Substitution for MDMA in drug discrimination ([1]; rats) | Tmax in plasma [2] | Onset of cardiovascular effects after administration ([3]; 150 or 200 mg oral) | SBP effects returned to baseline ([3]; 150 or 200 mg oral) | DBP Emax ([3]; 150 or 200 mg oral, n=12) | HR Emax ([3]; 150 or 200 mg oral, n=12) | SBP Emax ([3]; 150 or 200 mg oral, n=12) | DBP Emax [3, 4] | HR Emax [3, 4] | SBP Emax [3, 4] | HR AUC0-5/6 h [3, 5] | SBP AUC0-5/6 h [3, 5] | T AUC0-5/6 h ([3]; AUC0–6h, oral temperature, 150 or 200 mg oral, n=12) | Tolerability, serious adverse events ([3]; all administered doses (150 or 200 mg oral)) | T Emax ([3]; oral temperature, 150 or 200 mg oral, n=12) |
| --- | --- | --- | --- | --- | --- | --- | --- | --- | --- | --- | --- | --- | --- | --- | --- | --- |
| CNC(C)C(=O)c1ccc(Cl)cc1 (stereo not shown) [Clephedrone, 4-chloromethcathinone] | fully substituted for MDMA |  |  |  |  |  |  |  |  |  |  |  |  |  |  |  |
| CNC(C)C(=O)c1ccc2c(c1)OCO2 (stereo not shown) [Methylone, 3,4-methylenedioxy-N-methylcathinone] |  | > 80% | 2 h | 0.5 h | 3 h | 3.75 ± 11.52 mmHg | 28.75 ± 16.09 bpm | 27.04 ± 10.72 mmHg | 3.75 mmHg | 28.75 bpm | 27.04 mmHg | 97.07 ± 69.24 bpm·h | 38.70 ± 26.84 mmHg·h | 0.88 ± 1.34 °C·h | well tolerated | 0.23 ± 0.34 °C |
